Results published in patent US20250288599A1, “PHARMACEUTICAL COMPOSITIONS AND METHODS FOR TREATING OSTEOARTHRITIS” (INSIGNIA PHARMACEUTICALS, LLC, priority 2024, published 2025).
One block for each compound: values may come before it.

What was measured:
[1] = system: PGE2 release from normal human chondrocytes; assay: IL-1β-induced PGE2 release from normal human chondrocytes, 24 h, DA vs decanoate working solutions; format: cell-based; conditions: for inhibition at 25 µM: Homo sapiens, Chondrocyte, 25 micromolar
Description: The activity of DA working solutions prepared in either saline or lactated ringer's (LR) isotonic solutions was assessed. […] In addition, concentrated decanoate working solutions in saline or LR were prepared and added to the cultures at a final concentration of 25 micromolar. PGE2 release was then compared to matching points on the DA or decanoate medium as well as saline and LR controls.

[2] = system: IL-1β release from human THP1 macrophages; assay: Two-hit (LPS then ATP) inflammasome activation model, IL-1β release from THP1 macrophages; format: cell-based; conditions: for IC50: Homo sapiens
Description: The proinflammatory cytokine, IL-1β, is released from cells upon activation of the inflammasome, a multi-protein proinflammatory complex. A two-hit model of inflammasome activation in THP1 macrophages was developed that entails an overnight stimulation with LPS followed by a second proinflammatory stimulus, extracellular ATP, which drives inflammasome assembly and subsequent IL-1β release from the cells into the media.

[3] = system: PGE2 release from passage 3 normal human chondrocytes; assay: Rescue versus preincubation regimens, IL-1β-induced PGE2 release from passage 3 normal human chondrocytes; format: cell-based; conditions: Homo sapiens, Chondrocyte, 25 μM Dec, singlet
Description: The mechanisms of action (MOA) of a drug often dictate the timing and delivery of treatment regimens. While the MOA of compounds disclosed herein continue to be elucidated, experiments were designed to help establish how the drugs should be administered. Furthermore, these experiments will also help with hypothesis generation for subsequent MOA investigations. A low-passage chondrocyte monolayer model was utilized to establish how changes in drug delivery impact the inhibition of IL-1β-induced PGE2 release seen following treatment with the compounds under investigation.
Passage 3 normal human chondrocytes were seeded into tissue culture plates and then tested for compound activity by pre-treating for 24 hours, administering at the same time as activation, or by adding to cells following an overnight activation with IL-1β. Treatment groups included medium control, 25 μM decanoate (Dec), 28 mM D/L sodium Lac, and 10 μM LA. PGE2 release was then evaluated 24- or 96-hours post-activation with percent inhibitions calculated versus plate- and block-matched controls. The experiments were performed in singlet and are intended to be repeated to establish variance.

[4] = system: MMP13 expression in primary human chondrocytes from an osteoarthritic patient; assay: MMP13 relative expression in primary human osteoarthritic chondrocytes treated with HA and/or Dex; format: cell-based; conditions: 0.1% HA, 0.1 μM Dex
Description: Without being bound by theory, it is hypothesized that HA treatment in combination with Dex could provide a therapeutic strategy that promotes HA's beneficial effects while maintaining Dex's anti-inflammatory response. To investigate this, primary human chondrocytes from an osteoarthritic patient were treated with 0.1% HA and/or 0.1 μM Dex in monolayer culture or micromass pellets for 14 to 28 days. Total mRNA was then extracted, and qRTPCR was performed with primer pairs specific for MMP13 and the housekeeping gene GAPDH. Relative expression was then calculated versus controls, with each sample normalized to GAPDH amplification.

[5] = system: PGE2 release from normal human chondrocytes; assay: IL-1β-induced PGE2 release from normal human chondrocyte monolayers, 48 h, competitive EIA; format: cell-based
Description: Mechanical stress and inflammation are thought to sustain catabolic cycles of extracellular matrix deterioration during osteoarthritis. In particular, PGE2 correlates with increased protease production and discomfort or pain in osteoarthritis.
After 48-hours, PGE2 release was evaluated by competitive EIA, and relative potency was calculated versus dose responses of Dex alone.
After 48 hours, PGE2 release was evaluated by competitive enzyme immunoassay (EIA), and relative potency was calculated versus Dex alone.
Lac is commonly thought to be simply an end-product of anaerobic glycolysis; however, it may also have immunomodulatory effects and promote protein modifications that alter gene expression. The goal of this experiment was to determine how Lac supplementation affects early-phase, inflammatory, and late-stage redifferentiation in chondrocyte models. To establish how Lac may influence inflammation early in osteoarthritis, monolayers of normal human chondrocytes were exposed to Lac dose responses of up to 100 millimolar, concurrently with 0.5 nanograms per milliliter IL-1β for 48 hours. The release of PGE2 was then quantified using competitive EIA. To investigate how Lac affects transcriptional programs in dedifferentiated osteoarthritic chondrocytes, monolayer cultures and micromass pellets were treated for 14 days with 100 millimolar final concentrations of Lac, with and without 10 nanograms per milliliter transforming growth factor beta 3 (TGF-β3). Total RNA was then isolated, and relative expression of SOX9 or Col2a1 was calculated using qRT-PCR, normalized to GAPDH.

[6] = system: SOX9 expression in human osteoarthritic chondrocytes; assay: SOX9 relative expression in high and low passage osteoarthritic chondrocytes, 7, 14 or 28 days; format: cell-based
Description: Media was exchanged bi-weekly. […] SOX9 is a transcription factor vital to the development and maintenance of cartilage and is required for chondrogenesis. SOX9 promotes chondrocyte survival and transcriptionally activates cartilage-specific genes. SOX9 is repressed in hypertrophic chondrocytes (i.e. terminally differentiated osteoblast-like cells).

[7] = system: MMP13 expression in human osteoarthritic chondrocytes; assay: MMP13 relative expression in high and low passage osteoarthritic chondrocytes; format: cell-based; conditions: low passage osteoarthritic chondrocytes; 7, 14, 28 days
[8] = system: Col2a1 expression in dedifferentiated osteoarthritic chondrocytes; assay: Col2a1 relative expression in high passage osteoarthritic chondrocyte monolayer model with TGF-β; format: cell-based, human; conditions: 14 days in culture with TGF-β; 28 mM Lac, 100 mm LA
Description: (§1) These compounds were tested in a high passage osteoarthritic chondrocyte monolayer model, alone or in combination with other agents, for both transcriptional regulation of standard markers and IL-1β-induced PGE2 production.

[9] = system: PGE2 release from dedifferentiated osteoarthritic chondrocytes; assay: IL-1β-induced PGE2 release in high passage osteoarthritic chondrocyte monolayer model, 24 h; format: cell-based; conditions: Homo sapiens
Description: as §1

[10] = system: SOX9 expression in dedifferentiated osteoarthritic chondrocytes; assay: SOX9 relative expression in high passage osteoarthritic chondrocyte monolayer model with TGF-β; format: cell-based, human; conditions: 14 days in culture with TGF-β; 28 mM Lac, 100 mm LA
Description: as §1

[11] = system: PGE2 in primary human osteoarthritic synoviocytes; assay: Early, pretreatment and intracellular vs secreted PGE2 in IL-1β-stimulated human osteoarthritic synoviocytes; format: cell-based; conditions: 200 nanomolar DA or 500 nanograms/milliliter IL-1RA; IL-1β 1 nanogram/milliliter
Description: The concentrations in FIG. 31A were measured at hour three.
Cells were also treated with IL-IRA which inhibits IL-1β by binding the cell-surface […] and inhibiting its dimerization with the IL-1 receptor (IL-1R), effectively blocking IL-1β signaling.
FIG. 33 illustrates two bar graphs that depict the concentrations of PGE2 inside of the cell versus PGE2 that was secreted into the cell culture media. Specifically, the bar graph labeled “Intracellular” illustrates the concentrations of PGE2 inside of the cell and the bar graph labeled “Supernatent” illustrates the concentration of PGE2 that was secreted into the cell culture media. Synoviocytes were stimulated with IL-1β for 6 hours and then cell culture media harvested separately along with collecting cell lysates. […] To test this, the PGE2 concentrations inside of the cells and in the cell culture media were measured to compare them directly to each other.

[12] = 24 h, rescue (added after overnight IL-1β activation), 24-hour harvest, 28 mM Lac, 10 μM LA
[13] = 14-day micromass pellet culture
[14] = high passage, dedifferentiated osteoarthritic chondrocytes with TGF-β3, 14 days

Compound: CCCCCCCCCC(=O)[O-].[Na+] [Dec, sodium decanoate]
- relative potency of decanoate as compared to DA ([1]; 95 percent confidence interval of 0.80-1.06): 0.92
- inhibition at 25 µM ([1]; prepared in LR): 65.2%
- inhibition at 25 µM ([1]; prepared in medium): 62.3%
- inhibition at 25 µM ([1]; prepared in saline): 63.2%
- increase in potency of sodium decanoate by 25 nanomolar Dex [2]: 4.6 ×
- IC50 ([2]; THP-1, repeated experiments comparing DA to sodium decanoate): 146 µM
- IC50 ([2]; THP-1, sodium decanoate with addition of 25 nanomolar Dex): 31.5 µM
- inhibition at 25 µM ([3]; 24 h, added at the same time as IL-1β, 24-hour harvest): 53%
- inhibition at 25 µM [3, 12]: 72%
- inhibition at 25 µM ([3]; 96 h, added at the same time as IL-1β, 96-hour harvest): 76%
- inhibition at 25 µM ([3]; 96 h, rescue, 96-hour harvest, 28 mM Lac, 10 μM LA): 57%
- inhibition at 25 µM ([3]; pre-incubation 24 hours before IL-1β, 24-hour harvest, 28 mM Lac, 10 μM LA): 41%
- inhibition at 25 µM ([3]; pre-incubation, 96-hour harvest): 75%

- IC50 ([2]; THP-1, Dex phosphate alone, 1 picomolar to 10 micromolar): 0.046 µM
- IC50 ([2]; THP-1, Dex with addition of 100 micromolar DA): 0.0234 µM
Compound: C[C@@H]1C[C@H]2[C@@H]3CCC4=CC(=O)C=C[C@]4(C)[C@@]3(F)[C@@H](O)C[C@]2(C)[C@@]1(O)C(=O)CO [Dex, dexamethasone, reference compound]
- Observed Relative expression of MMP13 [4, 13]: −38.6 fold
- Observed Relative expression of MMP13 ([4]; 28-day monolayer culture): −3.6 fold
- increased Dex potency by 100 micromolar DA [2]: 1.969 ×
- inhibition at 0.01 µM ([5]; Homo sapiens, Chondrocyte, Dex 10 nanomolar final, IL-1β 500 pg/mL, 48 h): 100%
- concentration at which statistical significance of PGE2 suppression was observed ([5]; IL-1β 48 h): 100 picomolar

Compound: C[C@@H]1C[C@H]2[C@@H]3CCC4=CC(=O)C=C[C@]4(C)[C@@]3(F)[C@@H](O)C[C@]2(C)[C@@]1(O)C(=O)COP(=O)(O)O [Dxp, dexamethasone phosphate, reference compound]
- SOX9 expression [6, 14]: decreased expression of SOX9
- SOX9 expression ([6]; low passage osteoarthritic chondrocytes, 7, 14, 28 days): temporal decrease in expression of SOX9
- MMP13 transcription [7]: reduce MMP13 transcription

Compound: O=C(O)CCCCC1CCSS1 (stereo not drawn) [LA, α-lipoic acid]
- increase in Col2a1 compared to controls [8]: 218 fold
- inhibition at 1 µM ([9]; LA 1 μM final): 33%
- inhibition at 10 µM ([9]; LA 10 μM final): 44%
- inhibition at 100 µM ([9]; LA 100 μM final): 93%
- SOX9 expression [6, 14]: increased SOX9 transcription
- increase in SOX9 transcription [10]: 4 fold
- inhibition at 10 µM [3, 12]: 85%

Compound: IL-1RA: IL-1 Receptor Antagonist, blocks IL-1β signaling
- PGE2 release after pretreatment (5 minutes, 1 hour, or 2 hours) then IL-1β 10 minutes or 1 hour [11]: consistently higher than PGE2 levels in DA treated cells

Compound: hyaluronic acid [HA]
- Observed Relative expression of MMP13 [4, 13]: −1.6 fold
- Observed Relative expression of MMP13 ([4]; 28-day monolayer culture): 1.0 fold
